{
  "source": "patent US20060258581A1",
  "about": "“Methods and composition for derepressions of IAP-inhibited caspase” (priority 2001, published 2006)",
  "key": {"[1]": {"system": "mouse embryo fibroblasts, human prostate epithelial cells, peripheral blood lymphocytes", "experiment": "Normal cells (MEFs, human prostate epithelial cells, PBLs), 2 days, annexin-V", "assay_type": "cell-based", "set-up": "dose or concentration left out as unconfirmed", "method": "(§1) After 2 days, cell viability was assessed by annexin-V staining."}, "[2]": {"system": "U937 leukemia cells over-expressing XIAP", "experiment": "U937-Neo versus U937-XIAP leukemia cells, Annexin V", "assay_type": "cell-based", "conditions": "5 or 8 μM, 20 hours", "method": "After incubation, cells were washed, stained with FITC-conjugated Annexin V antibody and propidium iodide, and fluorescence measured by flow cytometry as described in Example XI.\nEqual amounts of protein were subjected to SDS-PAGE (4-20% gradient gels from ISC BioExpress, Kaysville, Utah), followed by transfer to nitrocellulose membranes. […] Secondary antibodies consisted of horseradish peroxidase (HRP)-conjugated:goat anti-mouse IgG (Bio-Rad, Hercules, Calif.). Detection was performed by the enhanced chemiluminescence (ECL) method. […] Lysates were prepared from the cells, normalized for total protein content and analyzed by SDS-PAGE immunoblotting using antibodies specific for XIAP, caspase-3, and β-actin."}, "[3]": {"system": "PPC1, ALVA31, DU145 and HeLa cells", "experiment": "Combination with TRAIL", "assay_type": "cell-based", "conditions": "1 µM", "method": "Similar tests of the effects of polyphenyl urea compounds on apoptosis induction by the biological agent TRAIL, an apoptosis inducing member of the Tumor Necrosis Factor (TNF) family were also performed."}, "[4]": {"system": "PC-3 and LNCaP prostate cancer cell lines", "experiment": "Clonogenic survival (colony formation) assay", "assay_type": "cell-based", "conditions": "Homo sapiens", "method": "In addition to short-term cytotoxicity assays selected polyphenylurea compounds were tested for effects on clonogenic survival of cancer cells in colony formation assays, which can be considered a more stringent test of anticancer activity."}, "[5]": {"system": "caspase-3 and caspase-7 activity in Jurkat cells", "experiment": "Caspase-3 and caspase-7 activity in whole Jurkat cells, cell permeable substrate", "assay_type": "cell-based", "conditions": "8 μM, 20 hours"}, "full length XIAP": {"target": "full length XIAP (Homo sapiens, UniProt P98170)", "sequence (P98170 whole entry)": "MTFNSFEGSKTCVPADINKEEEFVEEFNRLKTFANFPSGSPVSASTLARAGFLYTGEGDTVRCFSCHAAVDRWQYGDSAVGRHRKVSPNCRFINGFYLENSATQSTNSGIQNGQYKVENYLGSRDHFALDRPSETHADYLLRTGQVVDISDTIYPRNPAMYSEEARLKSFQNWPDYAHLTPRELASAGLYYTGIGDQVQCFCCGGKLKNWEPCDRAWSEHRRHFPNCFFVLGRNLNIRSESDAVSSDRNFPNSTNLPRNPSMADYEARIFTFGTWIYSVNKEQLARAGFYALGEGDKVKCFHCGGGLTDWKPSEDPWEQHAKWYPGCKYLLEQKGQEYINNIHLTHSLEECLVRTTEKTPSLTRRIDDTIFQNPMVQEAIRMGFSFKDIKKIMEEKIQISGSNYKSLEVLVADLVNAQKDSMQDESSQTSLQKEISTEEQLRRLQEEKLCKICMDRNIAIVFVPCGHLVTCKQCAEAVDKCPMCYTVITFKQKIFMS", "experiment": "Potency of IAP antagonists in vitro (Table VIII; caspase derepression / SMAC competition with full length XIAP)"}, "XIAP": {"target": "XIAP (Homo sapiens, UniProt P98170)", "sequence (P98170 whole entry)": "as above", "experiment": "SMAC binding/competition assay: biotinylated SMAC 7-mer on NeutrAvidin plates, GST-XIAP detected by anti-GST", "conditions": "in words", "method": "Peptide compounds containing unnatural amino acids in the 792 series, 792-33 and 792-35 (see FIG. 12 and 20 and Example XI), and an active compound in the TPI 1332 series, TPI 1332-69, were tested for binding activity in the SMAC binding assay as described above in Example X. For this assay, biotinylated SMAC 7-mer peptide (50 ng) was bound to 96 well plates coated with NeutrAvidin (Pierce, Rockford, Ill.) at 1 mg/ml in 100 μl per well of 50 mM HEPES pH 7.4, 100 mM NaCl 1 mM EDTA, 10% sucrose, 0.1% CHAPS, 10 mM DTT."}, "[6]": {"system": "Jurkat and HeLa tumor cell lines", "experiment": "Tumor cell lines Jurkat and HeLa, 2 days, annexin-V", "assay_type": "cell-based", "set-up": "dose or concentration left out as unconfirmed", "method": "as §1"}, "Jurkat leukemia cells": {"system": "Jurkat leukemia cells", "experiment": "Jurkat leukemia cell death, Annexin V/propidium iodide flow cytometry", "assay_type": "cell-based"}, "[7]": {"system": "tumor cells pulsed with specific antigen, antigen-specific T cells", "experiment": "Antigen-specific CTL cytotoxicity, 51Cr release", "assay_type": "cell-based", "conditions": "10 μM, 4 hours", "method": "After 4 hours, ^51Cr release was measured. Data shown in FIG. 39 are expressed as a percentage of total release induced by detergent lysis, and data represent mean±standard deviation of duplicate determinations."}, "[8]": {"system": "Du145 prostate cancer cells", "experiment": "Combination with anticancer drugs, MTT assay", "assay_type": "cell-based", "conditions": "10 μM, 48 hours", "method": "The percentage of viable cells relative to control was determined using a MTT (3-(4,5-dimethylthiazolyl-2)-2,5-diphenyltetrazolium bromide) assay which is commercially available (Sigma). […] Similar results were obtained for PPC1 (FIG. 31b) and PC3 (FIG. 31c) prostate cancer cells treated with VP16, DOX, or TAXOL, and for H460 (FIG. 31d) lung cancer cells treated with VP16 or DOX."}, "HeLa cells": {"system": "HeLa cells", "experiment": "Transfected HeLa cells, apoptosis by Annexin V", "assay_type": "cell-based", "conditions": "5 μM, 20 hours", "method": "In addition to transfecting the cells with full-length XIAP, analogous assays were performed with HeLa cells transfected with plasmids over-expressing various XIAP mutants. […] The mutant was produced by site-directed mutagenesis to modify positions 148, 219, 223, 314 and 323 to contain alanine. HeLa cells were also transiently transfected with plasmids encoding Bcl-XL, an anti-apoptotic protein that operates upstream of caspases to suppress Cytochrome C release from mitochondria. HeLa cells (2.5×10^5) were seeded onto six well plates in 2 mL DMEM H21 with 5% FBS. After 24 hrs, cells were transfected (Gene Porter) with plasmids. […] Both floating and adherent cells were then recovered from cultures, washed, and apoptosis was determined by Annexin V staining using flow cytometry.\nBcl-XL over-expression did afford resistance to traditional anticancer drugs such as etoposide and CrmA (a caspase-8 inhibitor), and protected cells from apoptosis induced by TRAIL, confirming that these anti-apoptotic proteins were functional in these experiments."}, "XIAP-inhibited caspase-3": {"target": "T1, XIAP-inhibited caspase-3 (Homo sapiens, UniProt P98170)", "T1 construct": "in a caspase derepression assay using full length XIAP; made in house; host or cells: bacteria", "T1 sequence (P98170 whole entry)": "as above", "experiment": "IAP derepression assay: Ac-DEVD-AFC hydrolysis by caspase-3 in the presence of GST-XIAP", "assay_type": "biochemical", "conditions": "in words", "method": "The ratio of Vmax for hydrolysis of Ac-DEVD-AFC in the presence and absence of the candidate mixture was calculated and used to identify those that contain an agent that derepresses an IAP-inhibited caspase.\nEach mixture was aliquoted in a 25 microliter volume and in duplicate to a well of a 96 well microtiter plate. […] Fluorescence of liberated AFC was immediately detected from each well for 30 minutes at 30 second intervals. The Vmax for hydrolysis of AC-DEVD-AFC from each well was measured using the softmax software package."}, "[9]": {"system": "PPC1 prostate cancer cells", "experiment": "PPC1 prostate cancer xenograft in Balb/C nu-/nu- mice", "assay_type": "in vivo", "conditions": "30 mg/kg i.p. for 2 or 3 days", "excerpt": "Similar data was obtained using TPI 1396-22 (see FIGS. 33a and 33b). […] In FIG. 33b, the mice were sacrificed at day 19 and the tumors excised and weighed."}, "[10]": {"system": "normal bone marrow mononuclear cells", "experiment": "Normal bone marrow mononuclear cells versus Jurkat, Annexin V, 20 hours", "assay_type": "cell-based", "conditions": "5 μM", "method": "After incubation, cells were washed, stained with FITC-conjugated Annexin V antibody and propidium iodide, and fluorescence measured by flow cytometry as described above."}},
  "note": "Entries after “also recorded” stand apart in the source; their conditions may differ.",
  "data": [
    {"smiles": "COc1ccc(CCN2CCC[C@@H]2CN(C(=O)Nc2ccccc2)[C@@H](CNC(=O)Nc2ccccc2)CC2CCCCC2)cc1", "note": "[TPI 1396-34]", "values": [
      {"measurement": "increase of percentage cell death above background", "setting": "[1]", "result": "less than one-fold"},
      {"measurement": "effect of over-expression of XIAP on apoptosis induction", "setting": "[2]", "result": "resistant"},
      {"measurement": "sensitization to TRAIL-induced apoptosis", "setting": "[3]", "result": "sensitized"},
      {"measurement": "activity at 10 µM", "setting": "[4]; 10 μM, read-out: colony formation, % of control", "result": "< 5", "unit": "%"},
      {"measurement": "EC50", "setting": "[4]; 3 days culture, colonies counted one week later, read-out: average EC50 dose, clonogenic survival", "result": 3, "unit": "µM"},
      {"measurement": "caspase activation in whole cells", "setting": "[5]", "result": "induced caspase activation"},
      {"measurement": "EC50", "setting": "full length XIAP", "result": 77.1, "unit": "µM"},
      {"measurement": "competition with XIAP binding to the SMAC peptide (SMAC competition assay)", "setting": "XIAP", "result": "does not compete"},
      {"measurement": "increase of killing above background", "setting": "[6]", "result": "> 4", "unit": "fold"},
      {"measurement": "time to half-maximal killing", "setting": "Jurkat leukemia cells; 10 µM", "result": "approximately 12 hours"},
      {"measurement": "apoptosis in the presence of zVAD-fmk", "setting": "Jurkat leukemia cells; 100 μM zVAD-fmk, 20 hours", "result": "suppressible"},
      {"measurement": "CTL-mediated lysis of tumor targets", "setting": "[7]", "result": "sensitizes tumor targets to CTL-mediated lysis"},
      {"measurement": "effect on dose-dependent cytotoxicity of VP16, DOX and TAXOL", "setting": "[8]", "result": "significantly increased dose-dependent cytotoxicity"},
      {"measurement": "apoptosis in HeLa cells over-expressing Bcl-XL", "setting": "HeLa cells", "result": "not blocked"},
      {"measurement": "apoptosis in HeLa cells over-expressing full-length XIAP", "setting": "HeLa cells", "result": "protected"},
      {"measurement": "apoptosis in HeLa cells transfected with a control vector", "setting": "HeLa cells", "result": "induced apoptosis"},
      {"measurement": "activity in the caspase derepression assay using full length XIAP", "setting": "XIAP-inhibited caspase-3", "result": "active XIAP inhibitors"},
      {"measurement": "tumor size / growth, PPC1 xenograft", "setting": "[9]", "result": "reduced tumor size; also recorded: significantly slowed the rate of growth"},
      {"measurement": "toxicity to normal bone marrow cells", "setting": "[10]", "result": "little toxicity"}
    ]}
  ]
}
